# Test results taken from patent US9572785B2, “DP2 antagonist and uses thereof” (Brickell Biotech, Inc., priority 2009, dated 2017).
# pIC50: −log10 of the molar value. Read-outs that look alike come from different tables or passages of the source.
# Columns and labels:
# physchem = conditions: water, 25 °C, pH 6.1, water, thermodynamic from solid
# Description: Analysis was performed on an Agilent HP1100 series system equipped with a diode array detector and using ChemStation software vB.02.01-SR1.
# in vivo = conditions: mouse, plasma, po, 10 mg/kg
# DP2 receptor [1] = target: T1, DP2 receptor (Cavia porcellus, UniProt H0W1T0); experiment: Whole blood eosinophil shape change (ESC) assay, guinea pig; format: cell-based; conditions: read-out: IC50, PGD2-induced eosinophil shape change
# T1 sequence (H0W1T0 1-391): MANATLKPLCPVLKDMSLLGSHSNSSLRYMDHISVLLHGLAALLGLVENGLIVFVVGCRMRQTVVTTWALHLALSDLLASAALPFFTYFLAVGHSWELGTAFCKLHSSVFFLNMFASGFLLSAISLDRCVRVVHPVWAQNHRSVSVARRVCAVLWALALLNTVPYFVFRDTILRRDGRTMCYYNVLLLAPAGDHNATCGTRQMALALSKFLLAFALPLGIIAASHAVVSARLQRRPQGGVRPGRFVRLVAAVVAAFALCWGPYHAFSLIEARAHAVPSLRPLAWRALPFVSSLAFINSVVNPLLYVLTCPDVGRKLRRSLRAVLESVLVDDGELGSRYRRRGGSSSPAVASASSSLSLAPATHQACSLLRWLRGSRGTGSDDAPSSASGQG
# DP2 receptor [2] = target: T2, DP2 receptor (Homo sapiens, UniProt Q9Y5Y4); experiment: Whole blood eosinophil shape change (ESC) assay, human; format: cell-based; design: endogenous in cells; host or cells: eosinophils in human whole blood
# T2 sequence (Q9Y5Y4 1-395): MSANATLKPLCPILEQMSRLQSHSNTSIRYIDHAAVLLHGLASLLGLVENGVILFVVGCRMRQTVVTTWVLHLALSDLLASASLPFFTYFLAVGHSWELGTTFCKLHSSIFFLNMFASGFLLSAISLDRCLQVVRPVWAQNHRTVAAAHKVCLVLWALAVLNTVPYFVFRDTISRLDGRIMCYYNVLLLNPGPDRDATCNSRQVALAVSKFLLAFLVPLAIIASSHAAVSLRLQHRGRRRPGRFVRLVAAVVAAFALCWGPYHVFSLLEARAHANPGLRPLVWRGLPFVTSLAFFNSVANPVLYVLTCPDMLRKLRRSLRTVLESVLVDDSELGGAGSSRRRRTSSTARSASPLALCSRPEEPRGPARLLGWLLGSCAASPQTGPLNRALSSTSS
# Description: Blood is drawn from consenting human volunteers in EDTA vacutainer tubes and used within 1 hr of draw. […] The blood is vortexed and incubated at 37° C. for 5 minutes. 5 μl of 1 μM PGD2 in PBS is added for a final concentration of 50 nM and the tubes briefly vortexed. The reactions are incubated for exactly 5 minutes at 37° C. and then terminated by placing the tubes on ice and immediately adding 250 μl of ice-cold 1:4 diluted Cytofix (BD Biosciences). The reactions are transferred to 12×75 mM polystyrene round bottom tubes and the red blood cells lysed by the addition of 3 ml ammonium chloride lysing solution (150 mM NH4Cl, 10 mM KHCO3, 0.1 mM EDTA disodium salt) and incubation at room temperature for 15 minutes. The cells are pelleted by spinning at 1300 rpm for 5 minutes at 4° C. and washed once with 3 ml ice-cold PBS. The cells are resuspended in 0.2 ml of ice-cold 1:4 diluted Cytofix (BD Biosciences) and analyzed on a FACSCalibur (BD Biosciences) within 2 hours. Eosinophils were gated on the basis of autofluorescence in the FL2 channel and shape change on 500 eosinophils was assayed by forward scatter and side scatter analysis. The specific change in shape induced by PGD2 was calculated as the difference between the percentage of high forward scatter eosinophils in the presence and absence of PGD2.
# guinea pig DP2 receptor = target: T3, guinea pig DP2 receptor (Cavia porcellus, UniProt H0W1T0); experiment: DP2 radioligand membrane binding assay, guinea pig
# T3 sequence (H0W1T0 1-391): T1 sequence (H0W1T0 1-391)
# Description: (§1) HEK293 cells stably expressing recombinant human DP2 are resuspended in 10 mM Hepes, 7.4 containing 1 mM DTT, lysed and centrifuged at 75,000×g to pellet the membranes. The membranes are resuspended in 10 mM Hepes, 7.4 containing 1 mM DTT and 10% glycerol to approximately 5 mg protein/ml. […] The reactions are terminated by rapid filtration through Whatman GF/C glass fibre filter plates. […] After harvesting, the filter plates are washed 3 times with 1 ml cold Wash Buffer then dried. Scintillant is then added to the plates and the radioactivity retained on the filters is determined on a Packard TopCount (Perkin Elmer). Specific binding is determined as total radioactive binding minus non-specific binding in the presence of 10 μM PGD2. IC50s were determined using GraphPad prism analysis of drug titration curves. Mouse, rat and guinea pig DP2 receptors were also investigated.
# [3] = target: T4, recombinant human CRTH2 receptor (Homo sapiens, UniProt Q9Y5Y4); experiment: In vitro GTPγS binding assay; format: biochemical; conditions: CHO membranes, 80 nM PGD2, 0.2% human serum albumin
# T4 construct: expressed in transfected cells
# T4 sequence (Q9Y5Y4 1-395): T2 sequence (Q9Y5Y4 1-395)
# DP2 receptor [4] = target: T2, DP2 receptor; experiment: In vitro DP2/CRTH2 radioligand binding assay ([3H]PGD2), human; design: expressed in transfected cells
# Description: as §1
# DP2 receptor [5] = target: T2, DP2 receptor; experiment: In vitro scintillation proximity assay (SPA) off-rate; format: binding; conditions: compared with PGD2
# [6] = Properties of the amorphous phase; format: physicochemical
# [7] = Solubility profiling at various pHs; format: physicochemical; conditions: 0.15 M NaCl (aq), pH-adjusted, 25 °C, thermodynamic from solid
# Description: Aqueous solubility was determined by suspending sufficient compound in water to give a maximum final concentration of ≧10 mg·ml^−1 of the parent free-form of the compound. The suspension was equilibrated at 25° C. for 24 hours then the pH was measured. The suspension was then filtered through a glass fibre C filter into a 96 well plate. The filtrate was then diluted by an appropriate factor. Quantitation was by HPLC with reference to a standard solution of approximately 0.1 mg·ml^−1 in DMSO. Different volumes of the standard, diluted and undiluted sample solutions were injected. The solubility was calculated using the peak areas determined by integration of the peak found at the same retention time as the principal peak in the standard injection.
# The aqueous solubility was determined using the method described in Table 1. The pH was varied by the suspensions being made up in 0.15 M NaCl (aq) and the pH adjusted to the appropriate value with either dilute HCl or NaOH. The suspension was then allowed to equilibrate for two hours followed by checking the pH and readjustment if required, using either HCl or NaOH as appropriate. The suspension was then allowed to equilibrate for 24 hrs.
compound,measurement,setting,value
"CCN(Cc1cc(C(F)(F)F)ccc1-c1cc(CC(=O)O)ccc1OC)C(=O)NCc1ccccc1 [Compound 1, [2′-(3-benzyl-1-ethyl-ureidomethyl)-6-methoxy-4′-trifluoromethyl-biphenyl-3-yl]-acetic acid]",solubility at 24 h,physchem,210 µg/mL
same,concentration at 1 h,in vivo,280 nM
same,concentration at 2 h,in vivo,150 nM
same,concentration at 4 h,in vivo,70 nM
same,concentration at 8 h,in vivo,30 nM
same,concentration at 24 h,in vivo,< 8 nM
same,pIC50,DP2 receptor [1],7.67
same,IC90,DP2 receptor [2],7.5 nM
same,pIC50,"DP2 receptor [2]; read-out: IC50, PGD2-induced eosinophil shape change",8.57
same,pIC50,"guinea pig DP2 receptor; average IC50, inhibition of radiolabeled PGD2 binding, guinea pig DP2, membrane binding",8.31
same,pIC50,"guinea pig DP2 receptor; guinea pig DP2 receptor, in the presence of 0.2% guinea pig serum albumin, read-out: IC50, radioligand membrane binding",7.64
same,pIC50,[3],> 7.70
same,pIC50,"DP2 receptor [4]; human DP2, membrane binding, read-out: average IC50, inhibition of radiolabeled PGD2 binding",8.31
same,pIC50,"DP2 receptor [4]; with human serum albumin, read-out: IC50, DP2 receptor binding",7.91
same,AUC0-24,"human, in vivo",44.5 ng·h/mL
same,Cmax,"human, in vivo",15.8 ng/mL
same,t1/2,"multiple dose administration 30 mg, cohort 2, Day 7",11.0 h
same,off-rate from the DP2 receptor,DP2 receptor [5],longer off-rate than PGD2
same,solubility in water,[6],sparingly soluble in water
same,"hygroscopicity, weight change",[6]; from 0% to 90% relative humidity,1.7%
same,solubility at 24 h,"[7]; pH 5.6, saline or isotonic, Media pH 6, original pH 6.02, final pH 5.60",160 µg/mL
same,solubility at 24 h,"[7]; saline or isotonic, Media pH 1, original pH 1.15, final pH 1.15",6.9 µg/mL
same,solubility at 24 h,"[7]; saline or isotonic, Media pH 2, original pH 2.0, final pH 2.0",1.6 µg/mL
same,solubility at 24 h,"[7]; saline or isotonic, Media pH 3, original pH 3.01, final pH 3.1",2.2 µg/mL
same,solubility at 24 h,"[7]; saline or isotonic, Media pH 4, original pH 3.97, final pH 4.22",3.5 µg/mL
same,solubility at 24 h,"[7]; saline or isotonic, Media pH 5, original pH 5.0, final pH 5.07",53 µg/mL
same,solubility at 24 h,"[7]; saline or isotonic, Media pH 7, original pH 7.03, final pH 6.47",590 µg/mL
same,solubility at 24 h,"[7]; saline or isotonic, Media pH 8, original pH 8.09, final pH 7.07",2200 µg/mL
